Data as given in the Kinase Knowledgebase extract (Sharma et al. 2016).

Target: MAPK14 (human) (UniProt Q16539)
Test: Inhibition of MAPK14 Kinase Activity

Chain of MAPK14 (human) (Q16539 whole entry, looked up): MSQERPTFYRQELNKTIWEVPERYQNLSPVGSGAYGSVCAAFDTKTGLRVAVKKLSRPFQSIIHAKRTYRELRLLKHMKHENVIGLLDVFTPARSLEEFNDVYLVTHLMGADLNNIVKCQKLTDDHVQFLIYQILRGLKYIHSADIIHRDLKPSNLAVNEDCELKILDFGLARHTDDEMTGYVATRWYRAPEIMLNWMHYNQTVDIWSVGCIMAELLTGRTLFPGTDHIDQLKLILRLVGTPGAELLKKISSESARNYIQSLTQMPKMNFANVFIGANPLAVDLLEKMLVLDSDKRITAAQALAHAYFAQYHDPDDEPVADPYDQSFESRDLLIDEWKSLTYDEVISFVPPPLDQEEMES

SMILES | IC50
Cc1nc(-c2ccc(F)cc2)c(-c2nc(C(=O)NCCc3ccc(S(N)(=O)=O)cc3)cs2)s1 | ≤ 1 µM
CC(C)NC(=O)c1csc(-c2oc(CN3CCN(C(=O)c4cscn4)CC3)nc2-c2ccc(F)cc2)n1 | ≤ 1 µM
COc1ccc(CNC(=O)c2csc(-c3c(-c4ccc(F)cc4)n[nH]c3C3CCNCC3)n2)cc1O | ≤ 1 µM
CC(C)NC(=O)c1csc(-c2c(-c3ccc(F)cc3)n[nH]c2C2CCN(C(=O)CC#N)CC2)n1 | ≤ 1 µM
COCC(C)NC(=O)c1csc(-c2sc(C)nc2-c2ccc(F)cc2)n1 (stereo unspecified) | ≤ 1 µM
CC(C)NC(=O)c1csc(-c2oc(CN3CCN(C(=O)c4ccc(-c5ccc(O)cc5)cc4)CC3)nc2-c2ccc(F)cc2)n1 | ≤ 1 µM
CC(CO)NC(=O)c1csc(-c2c(-c3ccc(F)cc3)n[nH]c2C2CCNCC2)n1 (stereo unspecified) | ≤ 1 µM
CC(C)NC(=O)c1csc(-c2c(-c3ccc(F)cc3)n[nH]c2C2CCN(C(=O)C=O)CC2)n1 | ≤ 1 µM
CC(C)NC(=O)c1csc(-c2oc(CN3CCN(C(=O)C4CCCCC4)CC3)nc2-c2ccc(F)cc2)n1 | ≤ 1 µM
CC(C)NC(=O)c1csc(-c2oc(CN3CCN(C(=O)Cc4ccc(C(F)(F)F)cc4)CC3)nc2-c2ccc(F)cc2)n1 | ≤ 1 µM
CC(C)NC(=O)c1csc(-c2[nH]c(CN(C)C)nc2-c2ccc(F)cc2)n1 | ≤ 1 µM
CC(C)NC(=O)c1csc(-c2oc(CN3CCN(C(=O)c4ncc[nH]4)CC3)nc2-c2ccc(F)cc2)n1 | ≤ 1 µM
CC(C)NC(=O)c1csc(-c2oc(CN3CCN(C(=O)Cc4ccc(Br)cc4)CC3)nc2-c2ccc(F)cc2)n1 | ≤ 1 µM
CC(C)NC(=O)c1csc(-c2oc(CNC(=O)C(Cc3ccc(O)cc3)NC(=O)OC(C)(C)C)nc2-c2ccc(F)cc2)n1 (stereo unspecified) | ≤ 1 µM
CC(C)NC(=O)c1csc(-c2oc(CN3CCN(C(=O)c4cc(Cl)ccc4O)CC3)nc2-c2ccc(F)cc2)n1 | ≤ 1 µM
Cc1cccc(CNC(=O)c2csc(-c3sc(C)nc3-c3ccc(F)cc3)n2)c1 | ≤ 1 µM
Cc1onc(-c2ccc(F)cc2Cl)c1-c1ccn(C(=O)NC(C)C)n1 | ≤ 1 µM
COc1cc(C=CC(=O)NCc2nc(-c3ccc(F)cc3)c(-c3nc(C(=O)NC(C)C)cs3)o2)ccc1O | ≤ 1 µM
Cc1nc(-c2ccc(F)cc2)c(-c2nc(C(=O)NCc3cccnc3)cs2)s1 | ≤ 1 µM
CC(C)NC(=O)c1csc(-c2c(-c3ccc(F)cc3)n[nH]c2C2CCN(C(=O)c3cccnc3Cl)CC2)n1 | ≤ 1 µM
CC(C)NC(=O)c1csc(-c2c(-c3ccc(F)cc3)n[nH]c2C2CCN(C(=O)c3cscn3)CC2)n1 | ≤ 1 µM

SMILES | IC50
Cc1ccc([N+](=O)[O-])c(C(=O)NCc2nc(-c3ccc(F)cc3)c(-c3nc(C(=O)NC(C)C)cs3)o2)c1 | ≤ 1 µM
CC(C)NC(=O)c1csc(-c2oc(CNC(=O)Cc3cccc(O)c3)nc2-c2ccc(F)cc2)n1 | ≤ 1 µM
COc1cc2c(cc1OC)CN(C(=O)c1csc(-c3sc(C)nc3-c3ccc(F)cc3)n1)CC2 | ≤ 1 µM
CC(C)NC(=O)c1csc(-c2oc(CNC(=O)CC3=CC(Cl)=C(O)OC3)nc2-c2ccc(F)cc2)n1 | ≤ 1 µM
CC(C)NC(=O)c1csc(-c2oc(CN3CCN(C(=O)C=Cc4ccccc4O)CC3)nc2-c2ccc(F)cc2)n1 | ≤ 1 µM
Cc1nc(-c2ccc(F)cc2)c(-c2nc(C(=O)NCc3cccc(Cl)c3)cs2)s1 | ≤ 1 µM
COc1ccc(-c2ccccc2)cc1NCc1onc(-c2ccc(F)cc2)c1-c1nc(C(=O)NC(C)C)cs1 | ≤ 1 µM
CC(C)NC(=O)c1csc(-c2c(-c3ccc(F)cc3)n[nH]c2C2CCN(C(=O)c3ccncc3Cl)CC2)n1 | ≤ 1 µM
COc1cc(C(=O)NCc2nc(-c3ccc(F)cc3)c(-c3nc(C(=O)NC(C)C)cs3)o2)c([N+](=O)[O-])cc1OC | ≤ 1 µM
CC(C)NC(=O)c1csc(-c2oc(CNC(=O)c3cc(F)ccc3[N+](=O)[O-])nc2-c2ccc(F)cc2)n1 | ≤ 1 µM
CC(C)NC(=O)c1csc(-c2oc(CN3CCN(C(=O)C(Cl)(Cl)Cl)CC3)nc2-c2ccc(F)cc2)n1 | ≤ 1 µM
Cc1nc(-c2ccc(F)cc2)c(-c2nc(C(=O)NCCc3c[nH]c4ccccc34)cs2)s1 | ≤ 1 µM
Cc1nc(-c2ccc(F)cc2)c(-c2nc(C(=O)NCc3ccc(F)cc3F)cs2)s1 | ≤ 1 µM
COc1ccccc1CNC(=O)c1csc(-c2sc(C)nc2-c2ccc(F)cc2)n1 | ≤ 1 µM
Cc1cccc(C(=O)NCc2nc(-c3ccc(F)cc3)c(-c3nc(C(=O)NC(C)C)cs3)o2)c1[N+](=O)[O-] | ≤ 1 µM
CC(C)NC(=O)c1csc(-c2oc(CNC(=O)c3cc4cc(Cl)ccc4o3)nc2-c2ccc(F)cc2)n1 | ≤ 1 µM
O=C(NCC1CC1)c1csc(-c2c(-c3ccc(F)cc3)n[nH]c2C2CCNCC2)n1 | ≤ 1 µM
COc1cc(OC)c(C(=O)N2CCN(Cc3nc(-c4ccc(F)cc4)c(-c4nc(C(=O)NC(C)C)cs4)o3)CC2)cc1OC | ≤ 1 µM
CC(=O)Nc1ccc(NC(=O)c2csc(-c3sc(C)nc3-c3ccc(F)cc3)n2)cc1 | ≤ 1 µM
Cc1nc(-c2ccc(F)cc2)c(-c2nc(C(=O)NCc3ccccc3OC(F)(F)F)cs2)s1 | ≤ 1 µM
CC(C)NC(=O)c1csc(-c2c(-c3ccc(F)cc3)n[nH]c2C2CCN(C(=O)CCc3nc4ccccc4[nH]3)CC2)n1 | ≤ 1 µM

SMILES | IC50
CC(C)NC(=O)c1csc(-c2oc(CNC(=O)c3cc(F)c(F)cc3Cl)nc2-c2ccc(F)cc2)n1 | ≤ 1 µM
CC(C)NC(=O)c1csc(-c2oc(CN3CCN(C(=O)c4ccc5cccc(O)c5n4)CC3)nc2-c2ccc(F)cc2)n1 | ≤ 1 µM
CC(C)NC(=O)c1csc(-c2oc(CNC(=O)Cc3ccccc3O)nc2-c2ccc(F)cc2)n1 | ≤ 1 µM
CC(C)NC(=O)c1csc(-c2oc(CN3CCN(C(=O)C(Cc4ccc(O)cc4)NC(=O)OC(C)(C)C)CC3)nc2-c2ccc(F)cc2)n1 (stereo unspecified) | ≤ 1 µM
CC(C)NC(=O)c1csc(-c2oc(CN3CCN(C(=O)c4ccc(Cl)cc4O)CC3)nc2-c2ccc(F)cc2)n1 | ≤ 1 µM
CC(C)NC(=O)c1csc(-c2oc(CNC(=O)Cc3ccc(O)c(F)c3)nc2-c2ccc(F)cc2)n1 | ≤ 1 µM
CC(C)NC(=O)c1csc(-c2oc(CN3CCN(C(=O)c4cc(O)ccc4O)CC3)nc2-c2ccc(F)cc2)n1 | ≤ 1 µM
CC(C)NC(=O)c1csc(-c2oc(CN3CCN(C(=O)c4cccc(O)c4O)CC3)nc2-c2ccc(F)cc2)n1 | ≤ 1 µM
CC(C)NC(=O)c1csc(-c2oc(CNC(=O)c3c(F)c(F)c(F)c(F)c3F)nc2-c2ccc(F)cc2)n1 | ≤ 1 µM
CCCN(C)Cc1onc(-c2ccc(F)cc2)c1-c1nc(C(=O)NC(C)C)cs1 | ≤ 1 µM
CC(C)NC(=O)c1csc(-c2oc(CNC(=O)c3cc([N+](=O)[O-])ccc3Cl)nc2-c2ccc(F)cc2)n1 | ≤ 1 µM
CC(C)NC(=O)c1csc(-c2oc(CBr)nc2-c2ccc(F)cc2)n1 | ≤ 1 µM
O=C(NCC(F)(F)F)c1csc(-c2c(-c3ccc(F)cc3)ncn2C2CCNCC2)n1 | ≤ 1 µM
Cc1ccc(F)cc1C(=O)NCc1nc(-c2ccc(F)cc2)c(-c2nc(C(=O)NC(C)C)cs2)o1 | ≤ 1 µM
C#CCNC(=O)c1csc(-c2c(-c3ccc(F)cc3)n[nH]c2C2CCNCC2)n1 | ≤ 1 µM
Cc1cccc(C(=O)N2CCN(Cc3nc(-c4ccc(F)cc4)c(-c4nc(C(=O)NC(C)C)cs4)o3)CC2)c1O | ≤ 1 µM
Cc1nc(-c2ccc(F)cc2)c(-c2nc(C(=O)NCCc3cccc(Cl)c3)cs2)s1 | ≤ 1 µM
CC(C)NC(=O)c1csc(-c2oc(CNC(=O)c3cc(O)c(O)c(O)c3)nc2-c2ccc(F)cc2)n1 | ≤ 1 µM
CC(C)NC(=O)c1csc(-c2c(-c3ccc(F)cc3)n[nH]c2C2CCN(C(=O)C(C)O)CC2)n1 (stereo unspecified) | ≤ 1 µM
